Key:
[1] = system: L2-412 antibody; test: Phage ELISA: binding of phage clones to coated L2-412 antibody; set-up: species or system rat; conditions: 100 μl culture supernatant; antibody 1 μg/ml coating
Method: (§1) Comparative binding of the HNK-1 selected phage/positive clones versus the L2-412 selected 15-15 phage to bound L2-412 antibody, IgG, HNK-1, and IgM is shown FIG. 14. Supernatant (100 μl) from an overnight culture of bacteria secreting phade were incubated with coated antibodies (100 μl of 1 μg/ml useded for coating) and detected with HRP-coupled anti-phage antibody.
Individual colonies resistant to tetracycline and kanamycin were grown in LB containing 20 μg/mil tetracycline in 96-wells plates (Nunc) overnight at 37° C. (300 μl/well), then centrifuged 10 minutes at 3000 rpm in Jouan centrifuge and the supernatant (100 μl) was incubated for 2 hr in another 96-well plate previously coated with mAbL2-412 (100 μl, μg/l ml overnight at 4° C.) and blocked by incubation for 2 hours with PBS-0.5% (w/v) BSA. After washing 5 times, the binding of the phages was detected by incubation with HRP-conjugated anti-M13 antibody (Pharmacia, Biotech.) for 1 hour at a dilution of 1:2000. […] The absorbance of the colored reaction product was determined at 405 nm in a Multiscan TitertekPlus (Flow, Switzerland). […]

[2] = system: HNK-1 antibody; test: Phage ELISA: binding of phage clones to coated HNK-1 antibody; set-up: species or system mouse; conditions: 100 μl culture supernatant; antibody 1 μg/ml coating
Method: as §1
Individual colonies resistant to tetracycline and kanamycin were grown in LB containing 20 μg/mil tetracycline in 96-wells plates (Nunc) overnight at 37° C. (300 μl/well), then centrifuged 10 minutes at 3000 rpm in Jouan centrifuge and the supernatant (100 μl) was incubated for 2 hr in another 96-well plate previously coated with mAbL2-412 (100 μl, μg/l ml overnight at 4° C.) and blocked by incubation for 2 hours with PBS-0.5% (w/v) BSA. After washing 5 times, the binding of the phages was detected by incubation with HRP-conjugated anti-M13 antibody (Pharmacia, Biotech.) for 1 hour at a dilution of 1:2000. The peroxidase reaction was started by the addition of 100 μl developer containing 0.01% hydrogen peroxide and 0.1% (w/v) 2,2′-azino-bis(3-ethylbenzthiazoline-6-sulfonic acid)-diammonium salt (ABTS, Boehringer Mannheim) in HRP buffer (0.1M sodium acetate, 0.05M NaH2PO4, pH adjusted to 4.2 with acetic acid). The absorbance of the colored reaction product was determined at 405 nm in a Multiscan TitertekPlus (Flow, Switzerland). […] Two individual colonies were picked and re-assayed for positivity towards mAb L2-412. Positive single colonies were stored in 40% glycerol at −80° C.

[3] = target: T1, laminin (Mus musculus, UniProt P19137); test: Binding of phage to immobilized laminin; conditions: laminin 10 μg/ml coating; anti-M13 HRP detection
T1 construct: purchased Gibco/BRL
Method: FIG. 5 depicts binding of phage 15-15 and control phage UBR2 to immobilized laminin (100 μl of 10 μg/ml used for coating). Bound phage were detected by HRP-conjugated anti-M13 antibody. The results are presented as OD405 vs. relative concentration of the phage preparation (a relative concentration of 100 corresponds to […] phage).

[4] = system: L2-412 antibody; test: Competition ELISA: binding of mAb L2-412 to immobilized L2/HNK-1 glycolipids; set-up: species or system rat
Method: FIG. 2A depicts competition of the L2-412 antibody to immobilized L2/HNK-1 glycolipids by various inhibitors: positive phage (denoted phage 15-15), negative phage (denoted neg. control phage), free peptide (denoted peptide 15-15) and SO3-sugar. L2-412 was preincubated with a stepwise 2-fold dilution series of the free peptide (starting concentration 2.2 mM), SO3-sugar (starting concentration 5 mM), positive phage and negative phage (starting concentration 10^12TUs/ml), and added to the coated glycolipid. After incubation and washing, the bound antibody was detected with HRP anti-rat antibody.
FIG. 2B depicts the percentage inhibition of L2-412 antibody to immobilized L2/HNK-1 glycolipids by various inhibitors. The percentage is calculated for the point in FIG. 2A with the highest concentration of inhibitor. […]
Microtiter plates (Nunc) were coated with the L2/HNK-1 glycolipids (50 μl, 1 μg/ml, dissolved in EtOH) and allowed to dry overnight. While blocking the wells for 2 hours with 0.5% (w/v) fatty-acid-free BSA in PBS, a limiting concentration of ^L2-412, previously determined, was pre-incubated with successive 2-fold dilutions of the inhibitor, starting at a concentration of 2.2 mM for the free peptide, 5 mM for the SO3 sugar and 10^12 positive and negative phages (the negative phages were cloned from the unbound fraction of the first round of screening). […]

[5] = Hall et al. 1995; cited from earlier work
[6] = system: neural cell adhesion to laminin; conditions: Hall et al. 1995; cited from earlier work
[7] = system: oligodendrocytes in mixed cerebellar cultures; test: Oligodendrocyte cultures treated with HIV gp120 and HNK-1 epitope mimic peptide, RIP immunostaining; assay type: cell-based, rat
Method: For these experiments, mixed neural cultures were isolated from rat cerebellum. Briefly, tissue was harvested from postnatal day five rat pups, dissociated and plated on poly-lysine coated 24 well cluster plates in Neural basal medium plus B27 supplement, 1% FBS and penicillin and streptomycin. HNK-1 epitope mimic peptide 8 mer (FLHTRLFV) (SEQ ID NO:8) (1 mM, 100 nM or 10 nM) was added to wells at the time of plating. Three days later, 1 nM gp120 was preincubated with 1 mM, 100 nM or 10 nM HNK-1 peptidomimetic for 1 hour at 37° C. After one hour, gp120 or gp120 plus HNK-1 peptidomimetic was added to mixed cerebellar cultures in sets of 6 replicates. Four days later, cultures were fixed and immunostained with the oligodendrocyte specific antibody marker, RIP. Data was analyzed by counting the number of RIP positive cells in twenty 20×-microscope fields. In addition, the number of RIP positive cells, mature oligodendrocytes with extensive intact membrane sheaths were counted. The cells are depicted in FIG. 20.

[8] = system: Ox42 (MAC 1), TNF and GFAP expression; test: gp120-mediated inflammation and neuropathy, sciatic nerve Oxycel delivery, spinal cord immunohistochemistry; assay type: in vivo, rat
Excerpt: Herzberg et al coated the sciatic nerve of rats with oxidized cellulose saturated with gp120 or BSA as control. Persistant hyperalgesia and allodynia were observed throughout a one month testing period in rats treated with gp120. […] This system was utilized to assess the affect of the 8-mer peptide on gp120-mediated inflammation and neuropathy, using Ox42 (MAC 1), TNF and GFAP expression as immunohistochemical markers.
Ox42 (also called MACl) is a general marker for immune/inflammatory activation of the central nervous system (expressed by microglia—when those proliferate and/or extend their processes). If Ox42 marker is present two weeks, and particularly four weeks, after initial neural injury, this indicates a chronic problem. An ongoing inflammatory process in the CNS is correlative of neuropathy. TNF is a cytokine indicating an inflammatory process, and in this case neuronal degeneration. It's expression increases in the CSF of pateints with HIV related neuropathy and is thought to play a role in the degenerative process in these patients (see “role of immune activation and cytokine expression in HIV-1 associated neurologic disease” bay Masaru Yoshioka Walter G Bradley, Paul Shapshak, Isao Nagano, Rene V. Stewart, Ke-Qin Xin, Ashok Srivastava, and Shozo Nakamura in Advance in Neuroimmunology) Vol.5 pp 335-358, 1995. GFAP is a marker for a general activation of astrocytes in the spinal cord and is expressed following damage to the CNS.
Male Sprague Dawley rats weighing 200-225 g were used.
The left sciatic nerve was isolated by blunt dissection, and wrapped with oxidized cellulose (Oxycel, Becton Dickinson) saturated with 250 ul sterile saline containing 400 ng of recombinant gp120 protein alone, or in the presence of 43 ng of the 8-mer L2/HNK-1 mimic peptide (corresponding to a 10×excess […] on a mole-per-mole basis), utilizing the Oxycel delivery method of Eliav et al (Eliav et al (1999) Pain 83(2): 169-82. Eight animals were treated with gp120 alone and eight animals were treated with gp120 and 43 ng peptidomimetic compound.
Animals were euthanized (overdose of xylazine/ketamine) at two and four weeks following surgery and perfused transcardially with ice cold saline followed by 4% paraformaldehyde.
Spinal cords were harvested and cryoprotected overnight at 30% sucrose solution 10 Sections of 40 um thickness from the lumbar enlargement from each animal were thaw mounted onto gelatized slides and stained immunohistochemically for Ox-42 (MACl), TNF and GFAP.

[9] = system: oligodendrocytes in mixed cerebellar cultures; test: Oligodendrocyte cultures treated with HIV gp120 and HNK-1 epitope mimic peptide, RIP immunostaining; assay type: cell-based, rat; remark: listed apart in the source
[10] = system: embryonic neural cell cultures; test: Embryonic neural cell cultures treated with L1 and chemotherapeutic agents; assay type: cell-based; conditions: with cisplatin and vincristin; experiments not detailed
Excerpt: Thus, in view of the recognized and previously described role of HNK-1 expressing cells, natural killer cells, in the surveillance of tumors and virus-infected cells, the carbohydrate epitope mimic peptides can be utilized in enhancing, activating or otherwise modulating the surveillance and clearance of tumors and virus-infected cells. The carbohydrate epitope mimic peptides of the present invention may also have use in the protection of cells, particularly neural cells from chemotherapeutic agents. In experiments not specifically detailed in the Examples herein, the inventors treated embryonic neural cell cultures with a combination of the neural cell adhesion molecule L1 and chemotherapeutic agents, including cisplatin and vincristin. The cell cytopathic effects of the chemotherapeutic agents were reduced in te presence of L1. L1expresses the HNK-1 epitope and a good portion of L1 homophilic binding is HNK-1 mediated. Thus, it is contemplated that the L2/HNK-1 epitope mimic peptide of the present invention can be utilized in the protection of cells, particularly neural cells from chemotherapeutic agents. Untoward cellular cytotoxic effects and problematic symptoms associated therewith are a recognized and limiting side effect of chemotherapy, inherently limiting the dose of the agents which can be administered.

[11] = target: monoclonal antibody L2-412; test: competition ELISA: L2-412 preincubated with inhibitor (2-fold dilutions from 2.2 mM), then binding to immobilized L2/HNK-1 glycolipid
[12] = gp120 (1 nM) + 10 nM peptide, preincubated
[13] = gp120 (1 nM) + 100 nM peptide, preincubated
[14] = gp120 (1 nM) + 1 uM peptide, preincubated
[15] = gp120 400 ng + 43 ng 8-mer peptide on sciatic nerve, lumbar spinal cord

T R L F R V P V F R L G D F W (TRLFRVPVFRLGDFW) [Peptide 15H92]
binding of phage to coated L2-412 antibody [1]: bind L2-412 and HNK-1, nearly to the same extent | binding of phage to coated HNK-1 antibody [2]: bind L2-412 and HNK-1, nearly to the same extent

F L H T R L F V S D W Y H T P [phage 15-15]
binding of phage to coated HNK-1 antibody [2]: does not bind HNK-1 antibody to a significant extent | binding of phage to immobilized laminin [3]: bind to laminin in a concentration dependent manner

F L H T R L F V S D W Y H T (FLHTRLFVSDWYHT; m13 library) [Peptide 15-15]
inhibition of L2-412 binding to immobilized L2/HNK-1 glycolipids ([4]; highest inhibitor concentration (free peptide 2.2 mM, SO3-sugar 5 mM, phage 10^12 TUs/ml), no inhibitor = 0%): 30-35%

KGVSSRSYVGCIKNLEISRST
binding to the L2/HNK-1 carbohydrate [5]: bound to the L2/HNK-1 carbohydrate in a concentration-dependent manner | inhibition of HNK-1-mediated neural cell adhesion to laminin [6]: inhibited HNK-1-mediated neural cell adhesion to laminin

S G R G F C C W S N D S A L S [negative phage, reference compound]
inhibitory effect on L2-412 binding to immobilized L2-glycolipids ([4]; phage starting at 10^12): did not show this inhibitory effect

S L A P Y S L R I F V L F G G A (SLAPYSLRIFVLFGGA) [Peptide 15H233]
binding of phage to coated L2-412 antibody [1]: bind L2-412 and HNK-1, nearly to the same extent | binding of phage to coated HNK-1 antibody [2]: bind L2-412 and HNK-1, nearly to the same extent

F L H T R L F V (FLHTRLFV; m13 library) [Consensus peptide]
fluorescence microscopy of RIP positive oligodendrocytes ([7]; 10 nM HNK-1 epitope mimic peptide): Numerous mature RIP positive oligodendrocytes with extensive membrane sheaths were observed | # mature RIP + cells/20 fields ([7]; 100 nM peptide): 16.33 cells/20 fields | Total # RIP + cells/20 fields ([7]; 100 nM peptide): 76.67 cells/20 fields | # mature RIP + cells/20 fields [7, 12]: 8.833 cells/20 fields | # mature RIP + cells/20 fields [7, 13]: 11.17 cells/20 fields | Total # RIP + cells/20 fields [7, 13]: 69.83 cells/20 fields | # mature RIP + cells/20 fields [7, 14]: 12.33 cells/20 fields | effect on mature oligodendrocytes and gp120-associated myelin destruction ([7]; summary of Table 6): increases the number of mature oligodendrocytes and blocks myelin destruction associated with gp 120 treatment | GFAP immunoreactive area [8, 15]: 8745 pixels | Ox42 immunoreactive area [8, 15]: 1557 pixels | TNF immunoreactive area [8, 15]: 1478 pixels | effect on gp120-induced immunoreactivity ([8]; gp120 + peptide versus Oxycel alone): brings those values back to the same level as with Oxycel alone | cellular morphology of spinal cord sections, light microscopy ([8]; gp120 in combination with the HNK-1 peptide): This cellular morphology was not observed | fluorescence microscopy of RIP positive oligodendrocytes ([9]; 1 nM gp120 preincubated with 1 uM HNK-1 epitope mimic peptide): indistinguishable from mature RIP positive cells observed in cultures treated with the HNK-1 epitope mimic peptide only | # mature RIP + cells/20 fields ([9]; 1 uM peptide): 13.33 cells/20 fields | Total # RIP + cells/20 fields ([9]; 1 uM peptide): 62.67 cells/20 fields | # mature RIP + cells/20 fields ([9]; 10 uM peptide): 22.33 cells/20 fields | Total # RIP + cells/20 fields ([9]; 10 uM peptide): 75.83 cells/20 fields | Total # RIP + cells/20 fields [9, 12]: 73.83 cells/20 fields | Total # RIP + cells/20 fields [9, 14]: 76.83 cells/20 fields

L1: neural cell adhesion molecule L1 [Peptide L1]
cell cytopathic effects of chemotherapeutic agents [10]: reduced

FLHTRLFVSDWYHT [peptide 15-15 (free synthetic peptide …)]
percent inhibition [11]: 30 to 35%
